Usually AUC(0-t) stands for exposure summed from dosing to a finite time, without extrapolation to infinity. As usually defined, the Cmax is the highest concentration seen after dosing.

Read-outs that look alike come from different tables or passages of the source. Some results are limits rather than exact numbers.

The text below walks through data of US9233184B2, “Adhesive preparation” (HISAMITSU PHARMACEUTICAL CO., INC., priority 2006, dated 2016).

One data set can be described thus: clinical. As to conditions: human, in vivo; for Cmax: plasma Cmax. The procedure: (§1) Blood was collected over time. […] Methyl salicylate and 1-menthol are contained in large amounts in daily necessities. Therefore, the use of such daily necessities was avoided before and during the application.
(§2) The plasma concentrations of the methyl salicylate, its metabolite salicylic acid, and the 1-menthol were separately measured. The measurement was performed by liquid chromatography-mass spectrometry for the salicylic acid and by gas chromatography-mass spectrometry for the methyl salicylate and the 1-menthol. Each of the measurement methods was validated beforehand to confirm measurement reliability. Values obtained by subtracting an endogenous concentration (measurement value on 0 hour) before the application from an actual measurement value were used as plasma concentrations during the application. The Cmax and AUC0-24 were calculated according to the standard methods.
This measurement of the plasma concentrations was performed according to the guideline of FDA (U.S. Food and Drug Administration) (Guidance for Industry=Bioanalytical Method Validation).

The conditions of data set [1]: human, in vivo. The procedure: as §1, §2
A mean was an average value from the seven individuals to be tested. This measurement of the plasma concentrations was performed according to the guideline of FDA (U.S. Food and Drug Administration) (Guidance for Industry=Bioanalytical Method Validation).

The conditions of data set [2]: cited from earlier work.

In “clinical” (plasma AUC0-24, Mean ± S.D.), `CC1CCC(C(C)C)C(O)C1` (stereo not drawn) [Example 1-menthol, 1-menthol] yielded an AUC(0-t) of 80.6 ng·h/mL. Moreover, the “time within which maximum plasma concentration (Cmax) is achieved” value in data set [1] is no more than 8 h.

In the case of `COC(=O)c1ccccc1O` [Methyl salicylate], the “plasma concentration of methyl salicylate” value in data set [2] (eight pieces of adhesive preparation with 74.88 mg/piece of methyl salicylate applied to a human) is “approximately 30 ng/mL”; in data set [2] (two pieces of adhesive preparation with 74.88 mg/piece of methyl salicylate applied to a human) it was “hardly rose”. The AUC(0-t) in “clinical” (plasma AUC0-24, Maximum value) stood at 139 ng·h/mL; in “clinical” (plasma AUC0-24, Mean ± S.D.) it was 30.1 ng·h/mL; in “clinical” (plasma AUC0-24, Minimum value), 3.7 ng·h/mL. The Cmax is 109 ng/mL in “clinical” (Maximum value), 21.1 ng/mL in the data set “clinical” (Mean ± S.D.) and 2.5 ng/mL in the data set “clinical” (Minimum value). In data set [1], the “time within which maximum plasma concentration (Cmax) is achieved” value is no more than 6 h.

`O=C(O)c1ccccc1O` [Salicylic acid]: the AUC(0-t) was 24700 ng·h/mL in “clinical” (plasma AUC0-24, Maximum value); 8850 ng·h/mL in “clinical” (plasma AUC0-24, Mean ± S.D.); 3460 ng·h/mL in “clinical” (plasma AUC0-24, Minimum value). Moreover, the values for the Cmax in the data set “clinical” (Maximum value), in “clinical” (Mean ± S.D.) and in “clinical” (Minimum value) were 4100 ng/mL, 1290 ng/mL and 531 ng/mL, respectively. Further, in data set [1], the “time within which maximum plasma concentration (Cmax) is achieved” value was no more than 12 h.
